Results as given in US20030013041A1, “Optical data carrier comprising a cationic aminoheterocyclic dye as light-absorbent compound in the information layer” (priority 2001, published 2003).

Legend:
Format in all cases: physicochemical
[1] = Absorption spectrum measured in solution; settings: for λmax (methylene chloride): in methylene chloride; for λ1/2-λ1/10 (long wavelength flank): on the long wavelength flank; for λ1/2-λ1/10 (short wavelength flank): on the short wavelength flank; for λmax (methanol): in methanol
Text: In the case of a write-once optical data carrier according to the invention which is written on and read by means of the light of a blue laser, preference is also given to cationic aminoheterocyclic dyes whose absorption maximum λmax2 is in the range from 420 to 550 nm, where the wavelength λ½ at which the absorbance in the short wavelength flank of the absorption maximum at the wavelength λmax2 is half of the absorbance value at λmax2 and the wavelength λ 1/10 at which the absorbance in the short wavelength flank of the absorption maximum at the wavelength λmax2 is one tenth of the absorbance value at λmax2 are preferably not more than 50 nm apart. Such a cationic aminoheterocyclic dye preferably has no shorter-wavelength maximum λmax1 down to a wavelength of 350 nm, particularly preferably down to 320 nm, very particularly preferably down to 290 nm.
In the case of a write-once optical data carrier according to the invention which is written on and read by means of the light of a red laser, preference is given to cationic aminoheterocyclic dyes whose absorption maximum λmax2 is in the range from 500 to 650 nm, where the wavelength λ½ at which the absorbance in the long wavelength flank of the absorption maximum at the wavelength λmax2 is half of the absorbance value at λmax2 and the wavelength λ 1/10 at which the absorbance in the long wavelength flank of the absorption maximum at the wavelength λmax2 is one tenth of the absorbance value at λmax2 are preferably not more than 50 nm apart. Such a cationic aminoheterocyclic dye preferably has no longer-wavelength maximum λmax3 up to a wavelength of 750 nm, particularly preferably up to 800 nm, very particularly preferably up to 850 nm.
The absorption spectra are measured, for example, in solution.
Suitable cationic aminoheterocyclic dyes having the required spectral properties are, in particular, those in which the dipole moment change Δμ=|μg−μag|, i.e. the positive difference between the dipole moments in the ground state and in the first excited state, is very small, preferably <5 D, particularly preferably <2 D. A method of determining such a dipole moment change Ap is described, for example, in F. Wuirthner et al., Angew. Chem. 1997, 109, 2933, and in the literature cited therein. A low solvent-induced wavelength shift (methanol/methylene chloride) is likewise a suitable selection criterion. Preference is given to cationic aminoheterocyclic dyes whose solvent-induced wavelength shift Δλ=|λmethylene chloride−λmethanol|, i.e. the positive difference between the absorption wavelengths in the solvents methylene chloride and methanol, is <25 nm, particularly preferably <15 nm, very particularly preferably <5 nm.

Solubility in TFP = assay: Solubility in TFP
Film formation = assay: Film formation
Text: Apart from the abovementioned optical properties, the writeable information layer comprising light-absorbent organic substances has to have a substantially amorphous morphology to keep the noise signal during writing or reading as small as possible. For this reason, it is particularly preferred that crystallization of the light-absorbent substances be prevented in the application of the substances by spin coating from a solution, by vapour deposition and/or sublimation during subsequent covering with metallic or dielectric layers under reduced pressure.

Structure (SMILES)	ε ([1]; at λmax in methylene chloride)	λmax (methylene chloride) [1] [nm]	λ1/2-λ1/10 (long wavelength flank) [1] [nm]	λ1/2-λ1/10 (short wavelength flank) [1] [nm]	Solubility (Solubility in TFP) [%]	λmax (methanol) [1] [nm]	ε ([1]; solvent not stated, printed after λmax in methanol and methylene chloride)	Film appearance (Film formation)	ε ([1]; at λmax in methanol)
CC1(C)C2=NC(=[N+]3CCCC3)SC2=Cc2sc(N3CCCC3)nc21 [Example 7]	37153 L/mol/cm	616	27	50	–	–	–	–	–
C(=C1/SC(=[N+]2CCOCC2)N=C1c1ccccc1)/c1sc(N2CCOCC2)nc1-c1ccccc1 [Example 1]	–	587	14.5	42	> 2	581	102 800 l/mol cm	–	–
CN(c1ccccc1)c1nc2c(s1)C=C1S/C(=[N+](\C)c3ccccc3)N=C1C2(C)C [Example 8]	43650 L/mol/cm	623	–	–	–	–	–	–	–
CCCCN(CCCC)c1ccc(/C=C/C2=[N+](C)c3ccccc3C2(C)C)s1 [Example 3]	98 554 l/mol cm	543	14	34	> 2	528	–	Glass-like film	68 555 l/mol cm
CN(C)c1ccc(/C=C2\SC(=[N+]3CCOCC3)N=C2c2ccccc2)cc1 [Example 4]	104 970 l/mol cm	601	19	42	> 2	–	–	–	–
CN(C)c1ccc(/C=C/C2=[N+](C)c3ccccc3C2(C)C)o1 [Example 2]	–	–	30	41	> 2	551	–	Glass-like film	87 670 l/mol cm
